Laboratory results reported in patent publication US20110003689A1, “USE OF POLYMERIC GUANIDINE DERIVATIVES FOR THE CONTROL OF UNWANTED MICROORGANISMS IN CROP PROTECTION” (AKA TECHNOLOGY GMBH, priority 2007, published 2011).
Counter-ions that a name gives are not always drawn. Like-named read-outs stand apart in the source and are kept apart here.

Experiments:
Pyrenophora teres = Pyrenophora teres test (barley)/curative (Example U); type: in vivo
[1] = tested on: Blumeria graminis f. sp. hordei; assay: Blumeria graminis test (barley)/curative (Example P); type: in vivo; conditions: 168 h, read-out: Efficacy in % found
Venturia inaequalis = assay: Venturia test (apple)/protective, combinations (Example L)
Procedure: After the spray coating has dried on, the plants are inoculated with an aqueous conidia suspension of the apple scab pathogen Venturia inaequalis and then remain in an incubation cabin at about 20° C. and 100% relative atmospheric humidity for 1 day. The plants are then placed in a greenhouse at about 21° C. and a relative atmospheric humidity of about 90%. Evaluation is carried out 10 days after inoculation.

Botrytis cinerea = assay: Botrytis test (bean)/protective (Example N)
Procedure: After the spray coating has dried on, 2 small pieces of agar colonized by Botrytis cinerea are placed onto each leaf. The inoculated plants are placed in a dark chamber at about 20° C. and 100% relative atmospheric humidity. 2 days after the inoculation, the size of the infected areas on the leaves is evaluated.

Puccinia triticina = Puccinia triticina test (wheat)/curative (Example T); type: in vivo
Fusarium graminearum = type: in vivo; conditions: 500 ppm
Alternaria solani = assay: Alternaria test (tomato)/protective, combinations (Example M); type: in vivo
[2] = tested on: Blumeria graminis f. sp. hordei; assay: Blumeria graminis test (barley)/protective (Example O); type: in vivo; conditions: 125 ppm
Procedure: [table] […] Evaluation is carried out 7 days after inoculation.

Plasmopara viticola = assay: Plasmopara test (grapevine)/protective, combinations (Example K); type: in vivo
Leptosphaeria nodorum [3] = assay: Leptosphaeria nodorum test (wheat)/curative (Example R); type: in vivo; conditions: 62.5 ppm
Leptosphaeria nodorum [4] = assay: Leptosphaeria nodorum test (wheat)/protective (Example Q); type: in vivo; conditions: 62.5 ppm
Phytophthora infestans = type: in vivo
[5] = Alternaria solani, 72 h, read-out: Efficacy in % found

Question: Which “Efficacy in % found” value (Pyrenophora teres; 500 ppm) does the source give for `Fc1ccc([C@]2(Cn3cncn3)O[C@H]2c2ccccc2Cl)cc1` (racemic) [(B-12) epoxiconazole, epoxiconazole] here?
Answer: 78%

Question: Which results are given for `CC(C)(C)C(O)C(Oc1ccc(-c2ccccc2)cc1)n1cncn1` (centres unmarked) [(B-3) bitertanol, bitertanol]?
Answer: pest or weed control at 500 ppm ([1]; 500 ppm): 63%; Efficacy in % found (Venturia inaequalis; 2.5 ppm): 63%

Question: With `CC1COC(Cn2cncn2)(c2ccc(Oc3ccc(Cl)cc3)cc2Cl)O1` (centres unmarked) [(B-7) difenoconazole, difenoconazole] as the compound, how does the pest or weed control at 250 ppm [1] read?
Answer: 78%

Question: Which “Efficacy in % found” value (Botrytis cinerea; 2.5 ppm) does the source give for `CC1(C(=O)Nc2ccc(O)c(Cl)c2Cl)CCCCC1` [(B-16) fenhexamid, fenhexamid] here?
Answer: 0%

Question: With `C=CCOC(Cn1ccnc1)c1ccc(Cl)cc1Cl` (centres unmarked) [(B-26) imazalil, imazalil] as the compound, how does the “Efficacy in % found” value (Puccinia triticina; 500 ppm) read?
Answer: 83%

Question: For `CCCN(CCOc1c(Cl)cc(Cl)cc1Cl)C(=O)n1ccnc1` [(B-39) prochloraz, prochloraz], which “Efficacy in % found” value (Fusarium graminearum) is on record?
Answer: 63%

Question: For `OC(Cc1ccccc1Cl)(Cn1nc[nH]c1=S)C1(Cl)CC1` (centres unmarked) [(B-41) prothioconazole, prothioconazole], which pest or weed control at 5 ppm (Alternaria solani; [5]) is on record?
Answer: 1%

Question: What about the “Efficacy in % found” value (Pyrenophora teres; 125 ppm) of the same compound?
Answer: 78%

Question: How did the “Efficacy in % found” value (Puccinia triticina; 1000 ppm) turn out when `CCCN(CC)CC1COC2(CCC(C(C)(C)C)CC2)O1` (centres unmarked) [(B-46) spiroxamine, spiroxamine] was run?
Answer: 40%

Question: For `CC(C)(C)C(O)(CCc1ccc(Cl)cc1)Cn1cncn1` (centres unmarked) [(B-47) tebuconazole, tebuconazole], which pest or weed control at 5 ppm (Alternaria solani; [5]) is on record?
Answer: 29%

Question: And the “Efficacy in % found” value (Pyrenophora teres; 250 ppm)?
Answer: 60%

Question: For `CCCCCCCCCCCCCN1CC(C)OC(C)C1` (centres unmarked) [(B-52) tridemorph, tridemorph], which pest or weed control at 250 ppm [1] is on record?
Answer: 75%

Question: Which results are given for `Cn1cc(C(=O)Nc2ccc(F)cc2-c2ccc(Cl)c(Cl)c2)c(C(F)F)n1` [(C-2) bixafen, N-(3′,4′-dichloro-5-fluoro-1,1′-biphenyl-2-yl)-3-(difluoromethyl)-1-methyl-1H-pyrazole-4-carboxamide]?
Answer: pest or weed control at 1.25 ppm (Alternaria solani; Alternaria solani, 72 h, 1.25 ppm, read-out: Efficacy in % found): 49%; pest or weed control at 500 ppm ([1]; 500 ppm): 63%

Question: `O=C(Nc1ccccc1-c1ccc(Cl)cc1)c1cccnc1Cl` [(C-3) boscalid, boscalid] was tested. Which “Efficacy in % found” value (Venturia inaequalis; 5 ppm) did it give?
Answer: 36%

Question: With `O=C(NCCc1ncc(C(F)(F)F)cc1Cl)c1ccccc1C(F)(F)F` [(C-6) fluopyram, N-{2-[3-chloro-5-(trifluoromethyl)pyridin-2-yl]ethyl}-2-(trifluoromethyl)benzamide] as the compound, how does the pest or weed control at 2.5 ppm (Alternaria solani; [5]) read?
Answer: 23%

Question: `CC(C)CC(C)c1sccc1NC(=O)c1cn(C)nc1C(F)(F)F` (centres unmarked) [(C-12) penthiopyrad, penthiopyrad] was tested. Which pest or weed control at 250 ppm [1] did it give?
Answer: 88%

Question: What about the “Efficacy in % found” value (Venturia inaequalis; 5 ppm) of the same compound?
Answer: 60%

Question: For `Cc1nn(C)c(F)c1C(=O)Nc1ccccc1C(C)CC(C)C` (centres unmarked) [(C-14), N-[2-(1,3-dimethylbutyl)phenyl]-5-fluoro-1,3-dimethyl-1H-pyrazole-4-carboxamide], which pest or weed control at 2.5 ppm (Alternaria solani; [5]) is on record?
Answer: 0%

Question: And the pest or weed control at 250 ppm [1]?
Answer: 67%

Question: For `Cn1cc(C(=O)Nc2ccccc2OC(F)(F)C(F)F)c(C(F)F)n1` [(C-19), 3-(difluoromethyl)-1-methyl-N-[2-(1,1,2,2-tetrafluoroethoxy)phenyl]-1H-pyrazole-4-carboxamide], which “Efficacy in % found” value [2] is on record?
Answer: 78%

Question: And the “Efficacy in % found” value (Venturia inaequalis; 5 ppm)?
Answer: 35%

Question: With `CC(C)C1C2CCC1c1c(NC(=O)c3cn(C)nc3C(F)F)cccc12` (centres unmarked) [(C-41) isopyrazam, 3-(difluoromethyl)-1-methyl-N-[1,2,3,4-tetrahydro-9-(1-methylethyl)-1,4-methanonaphthalen-5-yl]-1H-pyrazole-4-carboxamide] as the compound, how does the pest or weed control at 500 ppm [1] read?
Answer: 78%

Question: Which “Efficacy in % found” value (Plasmopara viticola; 1 ppm) does the source give for `CSC1=N[C@@](C)(c2ccccc2)C(=O)N1Nc1ccccc1` [(D-2) fenamidone, fenamidone] here?
Answer: 19%

Question: Which “Efficacy in % found” value (Leptosphaeria nodorum [3]) does the source give for `CO/C=C(/C(=O)OC)c1ccccc1Oc1cc(Oc2ccccc2C#N)ncn1` [(D-4) azoxystrobin, azoxystrobin] here?
Answer: 60%

Question: What does the source list for `CO/N=C(/C1=NOCCO1)c1ccccc1Oc1ncnc(Oc2ccccc2Cl)c1F` [(D-8) fluoxastrobin, fluoxastrobin]?
Answer: pest or weed control at 5 ppm (Alternaria solani; [5]): 35%; pest or weed control at 500 ppm ([1]; 500 ppm): 78%

Question: For `COC(=O)N(OC)c1ccccc1COc1ccn(-c2ccc(Cl)cc2)n1` [(D-13) pyraclostrobin, pyraclostrobin], which pest or weed control at 5 ppm (Alternaria solani; [5]) is on record?
Answer: 49%

Question: What about the “Efficacy in % found” value (Leptosphaeria nodorum [4]) of the same compound?
Answer: 94%

Question: `CON=C(C(=O)OC)c1ccccc1CON=C(C)c1cccc(C(F)(F)F)c1` [(D-15) trifloxystrobin, trifloxystrobin] was tested. Which pest or weed control at 5 ppm (Alternaria solani; [5]) did it give?
Answer: 40%

Question: What about the “Efficacy in % found” value (Puccinia triticina; 500 ppm) of the same compound?
Answer: 83%

Question: Which “Efficacy in % found” value (Phytophthora infestans; 2 ppm) does the source give for `O=C(NCc1ncc(C(F)(F)F)cc1Cl)c1c(Cl)cccc1Cl` [(E-6) fluopicolide, fluopicolide] here?
Answer: 9%

Question: For `N#Cc1c(Cl)c(Cl)c(Cl)c(C#N)c1Cl` [(F-4) chlorothalonil, chlorothalonil], which “Efficacy in % found” value (Pyrenophora teres; 1000 ppm) is on record?
Answer: 30%

Question: Which “Efficacy in % found” value (Botrytis cinerea; 12.5 ppm) does the source give for `Cc1cc(C)nc(Nc2ccccc2)n1` [(G-10) pyrimethanil, pyrimethanil] here?
Answer: 13%

Question: `CC(C)[C@H](NC(=O)O)C(=O)N[C@H](C)c1nc2ccc(F)cc2s1` [(G-15) benthiavalicarb, benthiavalicarb] was tested. Which “Efficacy in % found” value (Phytophthora infestans; 0.5 ppm) did it give?
Answer: 23%

Question: For `COc1ccc(C(=CC(=O)N2CCOCC2)c2ccc(Cl)cc2)cc1OC` [(G-16) dimethomorph, dimethomorph], which “Efficacy in % found” value (Plasmopara viticola; 1 ppm) is on record?
Answer: 0%

Question: Which results are given for `Cc1ccc(C(C)NC(=O)[C@@H](NC(=O)OC(C)C)C(C)C)cc1` (some centres unmarked) [(G-18) iprovalicarb, iprovalicarb]?
Answer: Efficacy in % found (Phytophthora infestans; 2 ppm): 30%; Efficacy in % found (Plasmopara viticola; 0.5 ppm): 0%

Question: For `CC(C)NC(=O)N1CC(=O)N(c2cc(Cl)cc(Cl)c2)C1=O` [(G-31) iprodione, iprodione], which “Efficacy in % found” value (Botrytis cinerea; 12.5 ppm) is on record?
Answer: 11%

Question: How did the “Efficacy in % found” value (Phytophthora infestans; 100 ppm) turn out when `CCCOC(=O)NCCCN(C)C` [(G-35) propamocarb hydrochloride, propamocarb hydrochloride] was run?
Answer: 0%

Question: And the “Efficacy in % found” value (Plasmopara viticola; 400 ppm)?
Answer: 0%

Question: How did the “Efficacy in % found” value (Phytophthora infestans; 2.5 ppm) turn out when `COCC(=O)N(c1c(C)cccc1C)[C@H](C)C(=O)OC` [(G-55) metalaxyl-M, metalaxyl-M] was run?
Answer: 10%

Question: `N#Cc1c[nH]cc1-c1cccc2c1OC(F)(F)O2` [(G-60) fludioxonil, fludioxonil] was tested. Which “Efficacy in % found” value (Pyrenophora teres; 250 ppm) did it give?
Answer: 78%

Question: With `O=[N+]([O-])c1cc(C(F)(F)F)c(Cl)c([N+](=O)[O-])c1Nc1ncc(C(F)(F)F)cc1Cl` [(G-64) fluazinam, fluazinam] as the compound, how does the “Efficacy in % found” value (Plasmopara viticola; 5 ppm) read?
Answer: 0%

Question: For `CCNC(=O)NC(=O)/C(C#N)=N/OC` [(G-73) cymoxanil, cymoxanil], which “Efficacy in % found” value (Plasmopara viticola; 50 ppm) is on record?
Answer: 0%

Question: Which “Efficacy in % found” value (Plasmopara viticola; 200 ppm) does the source give for `CCO[PH](=O)O` [(G-86) fosetyl-Al, fosetyl-Al] here?
Answer: 0%

Question: For `OP(O)O` [(G-101) phosphorous acid, phosphorous acid], which “Efficacy in % found” value (Plasmopara viticola; 400 ppm) is on record?
Answer: 30%

Question: With mancozeb [(F-20) mancozeb] as the compound, how does the “Efficacy in % found” value (Phytophthora infestans; 25 ppm) read?
Answer: 20%

Question: And the “Efficacy in % found” value (Plasmopara viticola; 100 ppm)?
Answer: 5%

Question: What about the “Efficacy in % found” value (Alternaria solani; 50 ppm) of the same compound?
Answer: 31%

Question: Which “Efficacy in % found” value (Phytophthora infestans; 100 ppm) does the source give for propineb [(F-24) propineb] here?
Answer: 15%

Question: What about the “Efficacy in % found” value (Plasmopara viticola; 100 ppm) of the same compound?
Answer: 51%
